Results taken from PMC10063614, “Turning universal O into rare Bombay type blood” (Nature Communications, 2023).

Target: T1, FucOB (Amuc_1120), α-1,2-L-Fucosidase O to Bombay (Akkermansia muciniphila, UniProt B2UR61)
T1 construct: signal peptide (residues 1-23) removed, additional N-terminal 17-residue peptide with His tag; pET29a, E. coli BL21(DE3); monomer in crystal
Assay: released fucose by L-fucose dehydrogenase/NADPH assay
Format: biochemical
Conditions: 20 mM Tris-HCl pH 6.8, 37 °C, 30 min; enzyme:substrate 1:100,000

T1 sequence (B2UR61 entry or part of it): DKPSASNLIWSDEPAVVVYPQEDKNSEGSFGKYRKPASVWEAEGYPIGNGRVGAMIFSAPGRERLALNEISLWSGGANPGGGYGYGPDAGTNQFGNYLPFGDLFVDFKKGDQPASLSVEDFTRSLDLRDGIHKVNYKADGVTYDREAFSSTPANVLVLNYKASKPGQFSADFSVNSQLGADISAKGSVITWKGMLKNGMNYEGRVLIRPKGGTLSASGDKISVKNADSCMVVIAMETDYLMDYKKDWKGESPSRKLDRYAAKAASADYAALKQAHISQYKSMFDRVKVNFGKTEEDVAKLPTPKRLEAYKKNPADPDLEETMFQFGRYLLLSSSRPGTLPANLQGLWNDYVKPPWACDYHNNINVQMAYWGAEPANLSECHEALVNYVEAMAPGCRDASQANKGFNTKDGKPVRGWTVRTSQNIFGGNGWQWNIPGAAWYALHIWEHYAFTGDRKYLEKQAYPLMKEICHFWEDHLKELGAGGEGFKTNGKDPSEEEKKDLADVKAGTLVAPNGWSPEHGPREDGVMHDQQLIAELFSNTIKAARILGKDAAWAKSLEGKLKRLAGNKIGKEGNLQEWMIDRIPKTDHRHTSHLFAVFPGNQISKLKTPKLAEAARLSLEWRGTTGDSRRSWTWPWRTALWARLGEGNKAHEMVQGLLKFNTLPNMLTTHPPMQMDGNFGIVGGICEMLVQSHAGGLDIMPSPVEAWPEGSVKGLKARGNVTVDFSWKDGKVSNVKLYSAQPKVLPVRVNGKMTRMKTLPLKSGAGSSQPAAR

SMILES | released fucose by L-fucose dehydrogenase/NADPH assay
CC(=O)N[C@H]1C(O)O[C@H](CO)[C@@H](O[C@@H]2O[C@H](CO)[C@H](O)[C@H](O)[C@H]2O[C@@H]2O[C@@H](C)[C@@H](O)[C@@H](O)[C@@H]2O)[C@@H]1O (some centres unmarked) [blood group H antigen triaose type II] | FucOB hydrolyzes all three types of H antigen structures to obtain the afucosylated Bombay phenotype
C[C@@H]1O[C@@H](O[C@H]2[C@H](O[C@H]3[C@H](O)[C@@H](O)C(O)O[C@@H]3CO)O[C@H](CO)[C@H](O)[C@@H]2O)[C@@H](O)[C@H](O)[C@@H]1O (some centres unmarked) [2’-fucosyllactose] | FucOB hydrolyzes all three types of H antigen structures to obtain the afucosylated Bombay phenotype
